What all share (assay type): in vivo
Assay [1] has as its system Mycosphaerella graminicola; anamorph: Septoria tritici. Description: Fungicidal activity: leaf blotch of wheat (SEPTTR), wheat seedlings. The settings on record: Zymoseptoria tritici. Here is the method:
Evaluation of Fungicidal Activity: Leaf Blotch of Wheat (Mycosphaerella Graminicola; Anamorph: Septoria tritici; Bayer Code […]) Technical grades of materials were dissolved in acetone, which were then mixed with nine volumes of water containing 110 ppm Triton X-100. The fungicide solutions were applied onto wheat seedlings using an automated booth sprayer to run-off. All sprayed plants were allowed to air dry prior to further handling. Wheat plants (variety Yuma) were grown from seed in a greenhouse in 50% mineral soil/50% soil-less Metro mix until the first leaf was fully emerged, with 7-10 seedlings per pot. These plants were inoculated with an aqueous spore suspension of Septoria tritici either prior to or after fungicide treatments. After inoculation the plants were kept in 100% relative humidity (one day in a dark dew chamber followed by two to three days in a lighted dew chamber at 20° C.) to permit spores to germinate and infect the leaf. The plants were then transferred to a greenhouse set at 20° C. for disease to develop. When disease symptoms were fully expressed on the 1st leaves of untreated plants, infection levels were assessed on a scale of 0 to 100 percent disease severity. Percent disease control was calculated using the ratio of disease severity on treated plants relative to untreated plants.

Assay [2] has as its system Puccinia triticina; synonym: Puccinia recondita f. sp. tritici. Description: Fungicidal activity: wheat brown rust (PUCCRT), wheat seedlings. Here is the method:
Technical grades of materials were dissolved in acetone, which were then mixed with nine volumes of water containing 110 ppm Triton X-100. The fungicide solutions were applied onto wheat seedlings using an automated booth sprayer to run-off. All sprayed plants were allowed to air dry prior to further handling. Wheat plants (variety Yuma) were grown from seed in a greenhouse in 50% mineral soil/50% soil-less Metro mix until the first leaf was fully emerged, with 7-10 seedlings per pot. These plants were inoculated with an aqueous spore suspension of Septoria tritici either prior to or after fungicide treatments. After inoculation the plants were kept in 100% relative humidity (one day in a dark dew chamber followed by two to three days in a lighted dew chamber at 20° C.) to permit spores to germinate and infect the leaf. The plants were then transferred to a greenhouse set at 20° C. for disease to develop. When disease symptoms were fully expressed on the 1st leaves of untreated plants, infection levels were assessed on a scale of 0 to 100 percent disease severity. Percent disease control was calculated using the ratio of disease severity on treated plants relative to untreated plants. Evaluation of Fungicidal Activity: Wheat Brown Rust (Puccinia […]; Synonym: Puccinia recondita f. Sp. Tritici; Bayer Code PUCCRT) Wheat plants (variety Yuma) were grown from seed in a greenhouse in 50% mineral soil/50% soil-less Metro mix until the first leaf was fully emerged, with 7-10 seedlings per pot. These plants were inoculated with an aqueous spore suspension of Puccinia triticina either prior to or after fungicide treatments. After inoculation the plants were kept in a dark dew room at 22° C. with 100% relative humidity overnight to permit spores to germinate and infect the leaf. The plants were then transferred to a greenhouse set at 24° C. for disease to develop. Fungicide formulation, application and disease assessment followed the procedures as described in the Example A.

Assay [3] has the same test system. In words: Fungicide mobility (dropline mobility test): wheat brown rust (PUCCRT). The settings on record: 1 ug/leaf. Here is the method:
Evaluation of Fungicide Mobility: Wheat Brown Rust (Puccinia triticina; Synonym: Puccinia recondita f. sp. tritici; Bayer Code PUCCRT) “Yuma” wheat seedlings were used in the test. One mg of compound was dissolved in 9 μl of EC blank (emulsifiable concentrate) and 500 μl of acetone. Acetone was then evaporated overnight by leaving the vial open in a fume hood. Two milliliters of water containing 110 ppm Triton X-100 was added to each vial to prepare application solutions. A 2 μl drop of formulated material was applied to a marked line on the adaxial surface 5 cm from the leaf tip of the primary leaves. The primary leaves were kept in a horizontal position. Each treatment had 6 replicates. Plants were inoculated with PUCCRT 1-day after (1DPM) or 3-day prior to (3DCM) compound applications. When rust was fully expressed on primary leaves on control plants, the zone of treated leaves that was disease-free in the acropetal direction was measured with a ruler and converted to percent of the distance from marked line to leaf tip.

Where [4] appears, read: 24 h, 100 ppm, 1 Day Protectant, wheat, read-out: Disease Control SEPTTR 1DP.
The mark [5] stands for this setting: 72 h, 100 ppm, 3 Day Curative, wheat, read-out: Disease Control SEPTTR 3DC.
Setting [6] is: 24 h, 100 ppm, 1 Day Protectant, wheat, read-out: Disease Control PUCCRT 1DP.
[7] abbreviates: 72 h, 100 ppm, 3 Day Curative, wheat, read-out: Disease Control PUCCRT 3DC.
Setting [8] is: 24 h, 1 Day Protectant Mobility, read-out: Dropline Mobility Test PUCCRT 1DPM.
[9] abbreviates: 72 h, 3 Day Curative Mobility, read-out: Dropline Mobility Test PUCCRT 3DCM.
Setting [10] is: 24 h, read-out: Disease Control SEPTTR 1DP.
[11] abbreviates: 72 h, read-out: Disease Control SEPTTR 3DC.
Where [12] appears, read: 24 h, read-out: Disease Control PUCCRT 1DP.
Setting [13] is: 72 h, read-out: Disease Control PUCCRT 3DC.

Like-named read-outs stand apart in the source and are kept apart here.

Turning to `COc1ccnc(C(=O)N[C@H]2COC[C@H](Oc3ccccc3)[C@@H](Oc3ccccc3)[C@H](C)OC2=O)c1OC(C)=O` [Compound 236], the pest or weed control at 100 ppm in assay [1] (setting [4]), in assay [1] (setting [5]), in assay [2] (setting [6]) and in assay [2] (setting [7]) was 80 to 100% in each case. Also, in assay [3] (setting [8]), the pest or weed control at 1 µg/leaf lay in the range of 0 to 80%.
On to `COc1ccnc(C(=O)N[C@H]2COC[C@H](OC3CCCCC3)[C@@H](OCC(C)C)[C@H](C)OC2=O)c1OCOC(C)=O` [Compound 76], for which the pest or weed control at 100 ppm in assay [1] (setting [4]), in assay [1] (setting [5]), in assay [2] (setting [6]) and in assay [2] (setting [7]) was 80 to 100% in each case. The pest or weed control at 1 µg/leaf in assay [3] (setting [8]) is 80 to 100%; in assay [3] (setting [9]), 0 to 80%.
With `CCCO[C@H]1[C@H](C)OC(=O)[C@@H](NC(=O)c2nccc(OC)c2O)COC[C@@H]1OCCC` [Compound 58, 3-hydroxy-4-methoxy-N-((3S,7S,8S,9S)-9-methyl-2-oxo-7,8-dipropoxy-1,5-dioxonan-3-yl)picolinamide], the pest or weed control at 100 ppm was 0 to 80% in assay [1] (setting [10]), 0 to 80% in assay [1] (setting [11]), 80 to 100% in assay [2] (setting [12]) and 80 to 100% in assay [2] (setting [13]). Further, the pest or weed control at 1 µg/leaf in assay [3] (setting [8]) was in the range of 80 to 100%; in assay [3] (setting [9]), 0 to 80%.
Regarding `COc1ccnc(C(=O)N[C@H]2CO[C@@H](C)[C@H](OCC(C)C)[C@@H](OCC(C)C)[C@H](C)OC2=O)c1O` [Compound 26], the pest or weed control at 100 ppm in assay [1] (setting [4]) is 80 to 100%; in assay [1] (setting [5]) it was 0 to 80%; in assay [2] (setting [6]), 80 to 100%; in assay [2] (setting [7]), 80 to 100%. In addition, the pest or weed control at 1 µg/leaf in assay [3] (setting [8]) lay within 0 to 80%.
As to `CCCCCO[C@H]1[C@H](C)OC(=O)[C@@H](NC(=O)c2nccc(OC)c2O)COC[C@@H]1OCCCCC` [Compound 62], the pest or weed control at 100 ppm in assay [1] (setting [5]) and in assay [2] (setting [7]) was 80 to 100% each time. In addition, the pest or weed control at 1 µg/leaf in assay [3] (setting [8]) fell in the range of 0 to 80%.
`COc1ccnc(C(=O)N[C@H]2COC[C@H](OCC(C)C)[C@@H](O)[C@H](C)OC2=O)c1O` [Compound 70]: the pest or weed control at 100 ppm in assay [1] (setting [4]), in assay [1] (setting [5]), in assay [2] (setting [6]) and in assay [2] (setting [7]) was 0 to 80% in each case. Besides, the pest or weed control at 1 µg/leaf in assay [3] (setting [8]) and in assay [3] (setting [9]) was 0 to 80% in each case.
Consider `COc1ccnc(C(=O)N[C@H]2COC[C@H](OC3CCCCC3)[C@@H](O)[C@H](C)OC2=O)c1O` [Compound 74], for which the pest or weed control at 100 ppm in assay [1] (setting [4]), in assay [1] (setting [5]), in assay [2] (setting [6]) and in assay [2] (setting [7]) was 0 to 80% throughout. Also, the pest or weed control at 1 µg/leaf in assay [3] (setting [8]) and in assay [3] (setting [9]) was 0 to 80% each time.
For the molecule `CCCCO[C@H]1COC[C@H](NC(=O)c2nccc(OC)c2O)C(=O)O[C@@H](C)[C@@H]1OC(=O)c1ccccc1` [Compound 66], the pest or weed control at 100 ppm in assay [1] (setting [4]) is 80 to 100%; in assay [1] (setting [5]), 0 to 80%; in assay [2] (setting [6]) it was 80 to 100%; in assay [2] (setting [7]) it was 80 to 100%. Moreover, the pest or weed control at 1 µg/leaf in assay [3] (setting [8]) and in assay [3] (setting [9]) was 0 to 80% throughout.
For the molecule `COc1ccnc(C(=O)N[C@H]2COC[C@H](Oc3ccccc3)[C@@H](Oc3ccccc3)[C@H](C)OC2=O)c1O` [Compound 81, 3-hydroxy-4-methoxy-N-((3S,7S,8S,9S)-9-methyl-2-oxo-7,8-diphenoxy-1,5-dioxonan-3-yl)picolinamide], the pest or weed control at 100 ppm in assay [1] (setting [10]), in assay [1] (setting [11]), in assay [2] (setting [12]) and in assay [2] (setting [13]) was 80 to 100% throughout. For the same molecule, the pest or weed control at 1 µg/leaf was 80 to 100% in assay [3] (setting [8]) and 0 to 80% in assay [3] (setting [9]).
As to `COCCC(=O)Oc1c(OC)ccnc1C(=O)N[C@H]1COC[C@H](Oc2ccccc2)[C@@H](Oc2ccccc2)[C@H](C)OC1=O` [Compound 235], the pest or weed control at 100 ppm in assay [1] (setting [4]), in assay [1] (setting [5]), in assay [2] (setting [6]) and in assay [2] (setting [7]) was 80 to 100% throughout. In addition, in assay [3] (setting [8]), the pest or weed control at 1 µg/leaf is 0 to 80%.
In the case of `COc1ccc(O[C@H]2[C@H](C)OC(=O)[C@@H](NC(=O)c3nccc(OC)c3OCOC(C)=O)COC[C@@H]2Oc2ccc(OC)cc2)cc1` [Compound 220], the pest or weed control at 100 ppm in assay [1] (setting [4]), in assay [1] (setting [5]), in assay [2] (setting [6]) and in assay [2] (setting [7]) was 80 to 100% in each case.
Regarding `CCOCC(=O)OCOc1c(OC)ccnc1C(=O)N[C@H]1COC[C@H](Oc2ccc(F)cc2)[C@@H](Oc2ccc(F)cc2)[C@H](C)OC1=O` [Compound 230], the pest or weed control at 100 ppm in assay [1] (setting [4]), in assay [1] (setting [5]), in assay [2] (setting [6]) and in assay [2] (setting [7]) was 80 to 100% each time.
`COc1ccnc(C(=O)N[C@H]2CO[C@@H](C)[C@H](OCC(C)C)[C@@H](OCC(C)C)COC2=O)c1O` [Compound 4]: the pest or weed control at 100 ppm in assay [1] (setting [4]), in assay [1] (setting [5]) and in assay [2] (setting [6]) was 80 to 100% throughout.
For `CCOCC(=O)OCOc1c(OC)ccnc1C(=O)N[C@H]1COC[C@H](Oc2ccc(OC)cc2)[C@@H](Oc2ccc(OC)cc2)[C@H](C)OC1=O` [Compound 219], the pest or weed control at 100 ppm was 80 to 100% in assay [1] (setting [4]), 0 to 80% in assay [1] (setting [5]), 80 to 100% in assay [2] (setting [6]) and 80 to 100% in assay [2] (setting [7]).
Consider `COc1ccnc(C(=O)N[C@H]2COC[C@H](OCc3ccccc3)[C@@H](OCc3ccccc3)[C@@H](C)OC2=O)c1O` [Compound 49], for which the pest or weed control at 100 ppm in assay [1] (setting [4]), in assay [1] (setting [5]), in assay [2] (setting [6]) and in assay [2] (setting [7]) was 0 to 80% each time.
As to `COc1ccnc(C(=O)N[C@H]2CO[C@H](C)[C@H]3OC(C)(C)O[C@@H]3[C@@H](C)OC2=O)c1O` [Compound 27], the pest or weed control at 100 ppm in assay [1] (setting [4]), in assay [1] (setting [5]), in assay [2] (setting [6]) and in assay [2] (setting [7]) was 0 to 80% throughout.
For `CCCO[C@H]1COC[C@H](NC(=O)c2nccc(OC)c2O)C(=O)O[C@@H](C)[C@@H]1Oc1ccccc1` [Compound 202], the pest or weed control at 100 ppm in assay [1] (setting [4]), in assay [1] (setting [5]), in assay [2] (setting [6]) and in assay [2] (setting [7]) was 80 to 100% in each case.
For `C=C(C)CO[C@H]1COC[C@@H](NC(=O)c2nccc(OC)c2O)C(=O)OC[C@@H]1OCC(=C)C` [Compound 9], the pest or weed control at 100 ppm in assay [1] (setting [4]), in assay [1] (setting [5]), in assay [2] (setting [6]) and in assay [2] (setting [7]) was 0 to 80% each time.

For the origin of these results see patent publication US9144239B2, “Macrocyclic picolinamides as fungicides” (DOW AGROSCIENCES LLC, priority 2012, dated 2015).
